Assay results taken from patent publication US5696112A, “Fused heterocyclic azepines as vasopressin antagonists” (American Cyanamid Company, priority 1995, dated 1997).
Read-outs that look alike come from different tables or passages of the source.

Experiments:
Vasopressin V1 = Vasopressin V1 Antagonist Activity in Conscious Rats (vasopressin vasopressor response); format: in vivo, rat; settings: for inhibition in vivo at 30 mg/kg / inhibition in vivo at 10 mg/kg / inhibition in vivo at 20 mg/kg: Rattus norvegicus, read-out: Vasopressin vasopressor response, Max. % Inhibition
Method: Vasopressin V1 Antagonist Activity in Conscious Rats Conscious rats are restrained in a supine position with elastic tape. The area at the base of the tail is locally anesthetization by subcutaneous infiltration with 2% procaine (0.2 ml). Using aseptic technique the ventral caudal tail artery is isolated and a cannula made of PE 10 and 20 (heat-fused) tubing is passed into the lower abdominal aorta. The cannula is secured, heparinized (1000 i.u./cc), sealed and the would closed with one or two stitches of Dexon 4-0. The caudal vein is also cannulated in the same manner for intravenous drug administration. The duration of the surgery is approximately 5 minutes. Additional local anesthesia (2% procaine or lidocaine) is provided as needed. The animals are placed in plastic restraining cages in an upright position. The cannula is attached to a […] pressure transducer and pulsatile blood pressure is recorded. […] Percentage of antagonism by the compound is calculated using the pre-drug vasopressin vasopressor response as 100%.

oxytocin receptors = molecular target: T1, oxytocin receptors (Rattus norvegicus, UniProt P70536); assay: Oxytocin Receptor Binding; parameters: species or system Sprague-Dawley rats; settings: for IC50: 1.0 nM [3H]oxytocin
T1 construct: The uteri are dissected out, cleaned of fat and connective tissues; from tissue; host or cells: uterus membranes of DES-treated female Sprague-Dawley rats
T1 sequence (P70536 1-388): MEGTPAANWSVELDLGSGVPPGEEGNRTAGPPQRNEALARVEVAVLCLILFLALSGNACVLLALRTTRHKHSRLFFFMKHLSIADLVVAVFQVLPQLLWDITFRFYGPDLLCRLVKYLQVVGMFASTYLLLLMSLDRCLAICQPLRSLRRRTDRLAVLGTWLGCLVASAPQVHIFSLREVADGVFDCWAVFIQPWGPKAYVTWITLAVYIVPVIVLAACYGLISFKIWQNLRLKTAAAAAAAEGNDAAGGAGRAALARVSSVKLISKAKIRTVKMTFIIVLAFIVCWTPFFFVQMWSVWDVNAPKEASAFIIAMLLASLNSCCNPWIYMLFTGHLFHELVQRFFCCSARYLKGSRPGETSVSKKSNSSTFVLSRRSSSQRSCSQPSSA
Procedure, shortened: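 Membranes from uteri of DES-primed (0.3 mg/kg i.m., 18 h) female Sprague-Dawley rats incubated 60 min at 22 °C with 1.0 nM [3H]oxytocin in 50 mM Tris.HCl pH 7.4, 5 mM MgCl2 plus protease inhibitors; nonspecific binding with 1.0 uM oxytocin. IC50 from displacement after filtration.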

Vasopressin V2 = Vasopressin V2 Antagonist Activity in Conscious Hydrated Rats; format: in vivo, rat; settings: AVP 0.4 μg/kg i.p.
Method: Vasopressin V2 Antagonist Activity in conscious Hydrated Rats Conscious hydrated rats are treated with compounds under study from 0.1 to 100 mg/kg orally or vehicle. Two to four rats are used for each compound. One hour later, arginine vasopressin (AVP, antidiuretic hormone, ADH) dissolved in peanut oil is administered at 0.4 μg/kg intraperitoneally. Two rats in each test would not receive arginine vasopressin but only the vehicle (peanut oil) to serve as water-loading control. Twenty minutes later each rat is given 30 mL/kg of deionized water orally by gavage and is placed individually in a metabolic cage equipped with a funnel and a graduated glass cylinder to collect urine for four hours. Urine volume is measured and osmolality analyzed by use of a Fiske One-Ten osmometer (Fiske Assoc., Norwood, Mass. USA). Urinary sodium, potassium, and chloride are analyzed by use of ion-specific electrodes in a Beckman E3 (Electrolyte 3) Analyzer. In the following results, […] and […] osmolality relative to AVP-control indicates activity.

Row | IC50 (oxytocin receptors) [µM] | inhibition at 10 µM (oxytocin receptors) [%] | inhibition at 1.25 µM (oxytocin receptors; 1.25 μM) [%] | Compound | Time (Min) of Max. % Inhibition (Vasopressin V1; 30 mg/kg po) [min] | inhibition in vivo at 30 mg/kg (Vasopressin V1; 30 mg/kg po) [%] | Osmolality (Vasopressin V2; 30 mg/kg P.O.) [mOsm/kg] | Urine Volume (Vasopressin V2; 30 mg/kg P.O.) [ml/4 hours] | Time (Min) of Max. % Inhibition (Vasopressin V1; 10 mg/kg iv) [min] | inhibition in vivo at 10 mg/kg (Vasopressin V1; 10 mg/kg iv) [%] | Osmolality (Vasopressin V2; 10 mg/kg P.O.) [mOsm/kg] | Urine Volume (Vasopressin V2; 10 mg/kg P.O.) [ml/4 hours] | Time (Min) of Max. % Inhibition (Vasopressin V1; 20 mg/kg iv) [min] | inhibition in vivo at 20 mg/kg (Vasopressin V1; 20 mg/kg iv) [%] | Time (Min) of Max. % Inhibition (Vasopressin V1; 30 mg/kg iv) [min] | inhibition in vivo at 30 mg/kg (Vasopressin V1; 30 mg/kg iv) [%]
1 | 5.2 | 60 |  | O=C(Nc1ccc(C(=O)N2CCCCc3sccc32)cc1)c1cc(Cl)ccc1Cl [Example 9, N-[4-[(5,6,7,8-Tetrahydro-4H-thieno[3,2-b]azepin-4-yl)carbonyl]phenyl]2,5-dichlorobenzamide] | 180 | 17 |  |  |  |  |  |  |  |  |  | 
2 | 0.68 | 95 |  | Cc1ccccc1CC(=O)Nc1ccc(C(=O)N2CCCCc3sccc32)cc1 [Example 13, N-[4-[(5,6,7,8-Tetrahydro-4H-thieno[3,2-b]azepin-4-yl)carbonyl]phenyl]2-methylbenzeneacetamide] |  |  | 516 | 9.5 | 60 | 80 |  |  |  |  |  | 
3 |  | 55 |  | O=C(Nc1ccc(C(=O)N2CCCCc3sccc32)c(Cl)c1)c1ccc(Cl)cc1Cl [Example 68, N-[4-[(5,6,7,8-Tetrahydro-4H-thieno[3,2-b]azepin-4-yl)carbonyl]-3-chlorophenyl]-2,4-dichlorobenzamide] |  |  |  |  |  |  | 647 | 10.3 | 120 | 50 |  | 
4 | 0.51 | 97 |  | Cc1ccc(F)cc1C(=O)Nc1ccc(C(=O)N2CCCCc3sccc32)c(Cl)c1 [Example 70, N-[4-[(5,6,7,8-Tetrahydro-4H-thieno[3,2-b]azepin-4-yl)carbonyl]-3-chlorophenyl]-5-fluoro-2-methylbenzamide] |  |  |  |  |  |  | 1070 | 4 | 120 | 67 |  | 
5 | 1.8 | 83 |  | O=C(Nc1ccc(C(=O)N2CCCCc3sc(Cl)cc32)cc1)c1ccc(Cl)cc1Cl [Example 93, 2,4-Dichloro-N-[4-[(2-chloro-5,6,7,8-tetrahydro-4H-thieno[3,2-b]azepin-4-yl)carbonyl]phenyl]benzamide] |  |  |  |  |  |  | 1056 | 7.6 | 90 | 77 |  | 
6 | 0.95 | 97 |  | Cc1c(F)cccc1C(=O)Nc1ccc(C(=O)N2CCCCc3sc(Cl)cc32)cc1 [Example 94, N-[4-[(2-Chloro-5,6,7,8-tetrahydro-4H-thieno[3,2-b]azepin-4-yl)carbonyl]phenyl]-3-fluoro-2-methylbenzamide] |  |  |  |  |  |  | 910 | 8.8 | 90 | 74 |  | 
7 | 1.38 | 85 |  | O=C(Nc1ccc(C(=O)N2CCCCc3sc(Cl)cc32)cc1)c1c(Cl)cccc1Cl [Example 95, N-[4-[(2-Chloro-5,6,7,8-tetrahydro-4H-thieno[3,2-b]azepin-4-yl)carbonyl]phenyl]-2,6-dichlorobenzamide] |  |  |  |  | 30 | 61 | 1122 | 5 |  |  |  | 
8 | 0.27 |  | 58 | Cc1ccccc1C(=O)Nc1ccc(C(=O)N2CCCCc3sc(Cl)cc32)cc1 [Example 96, N-[4-[(2-Chloro-5,6,7,8-tetrahydro-4H-thieno[3,2-b]azepin-4-yl)carbonyl]phenyl]-2-methylbenzamide] |  |  | 465 | 16.1 | 90 | 65 |  |  |  |  |  | 
9 |  | 16 |  | Cc1c(F)cccc1C(=O)Nc1ccc(C(=O)N2CCCC(=O)c3sccc32)cc1 [Example 155, N-[4-[(5,6,7,8-Tetrahydro-8-oxo-4H-thieno[3,2-b]azepine-4-yl)carbonyl]phenyl]-3-fluoro-2-methylbenzamide] |  |  |  |  |  |  | 1053 | 4.5 | 60 | 62 |  | 
10 |  | 0 |  | O=C(Nc1ccc(C(=O)N2CCCC(=O)c3sccc32)cc1)c1ccc(Cl)cc1Cl [Example 156, N-[4-[(5,6,7,8-Tetrahydro-8-oxo-4H-thieno[3,2-b]azepin-4-yl)carbonyl]-phenyl]-2,4-dichlorobenzamide] |  |  |  |  |  |  | 1266 | 3.8 | 240 | 63 |  | 
11 |  | 29 |  | Cc1ccccc1C(=O)Nc1ccc(C(=O)N2CCCC(=O)c3sccc32)cc1 [Example 157, N-[4-[(5,6,7,8-Tetrahydro-8-oxo-4H-thieno[3,2-b]azepin-4-yl)carbonyl]-phenyl]-2-methylbenzamide] |  |  |  |  |  |  | 1070 | 6.5 | 60 | 66 |  | 
12 | 0.6 | 86 |  | O=C(Nc1ccc(C(=O)N2CCCCc3sccc32)c(Cl)c1)c1ccc(F)cc1Cl [Example 183] |  |  |  |  |  |  | 512 | 8.3 |  |  | 120 | 78
